Laboratory results taken from ChEMBL document CHEMBL4145597, “BMS-986163, a Negative Allosteric Modulator of GluN2B with Potential Utility in Major Depressive Disorder” (ACS Med Chem Lett, 2018).

Tests used:
[1] = Plasma concentration in CD-1 mouse at 0.1 to 1 mg/kg, iv; assay type: ADME, organism-based; conditions: in vivo
[2] = system: Mus musculus; experiment: Ex vivo receptor occupancy at GluN2B receptor in CD-1 mouse forebrain membranes assessed as reduction in [3H]Ro 25-6981 receptor labeling at 1 mg/kg, iv incubated for 5 mins by topcount micro scintillation counting method; assay type: functional
[3] = target: Voltage-gated inwardly rectifying potassium channel KCNH2 (Homo sapiens, UniProt Q12809); experiment: Inhibition of human ERG expressed in HEK293 cells assessed as reduction in peak tail current after 2 to 5 mins by patch clamp based electrophysiology assay; assay type: cell-based
Voltage-gated inwardly rectifying potassium channel KCNH2, sequence (Q12809 whole entry): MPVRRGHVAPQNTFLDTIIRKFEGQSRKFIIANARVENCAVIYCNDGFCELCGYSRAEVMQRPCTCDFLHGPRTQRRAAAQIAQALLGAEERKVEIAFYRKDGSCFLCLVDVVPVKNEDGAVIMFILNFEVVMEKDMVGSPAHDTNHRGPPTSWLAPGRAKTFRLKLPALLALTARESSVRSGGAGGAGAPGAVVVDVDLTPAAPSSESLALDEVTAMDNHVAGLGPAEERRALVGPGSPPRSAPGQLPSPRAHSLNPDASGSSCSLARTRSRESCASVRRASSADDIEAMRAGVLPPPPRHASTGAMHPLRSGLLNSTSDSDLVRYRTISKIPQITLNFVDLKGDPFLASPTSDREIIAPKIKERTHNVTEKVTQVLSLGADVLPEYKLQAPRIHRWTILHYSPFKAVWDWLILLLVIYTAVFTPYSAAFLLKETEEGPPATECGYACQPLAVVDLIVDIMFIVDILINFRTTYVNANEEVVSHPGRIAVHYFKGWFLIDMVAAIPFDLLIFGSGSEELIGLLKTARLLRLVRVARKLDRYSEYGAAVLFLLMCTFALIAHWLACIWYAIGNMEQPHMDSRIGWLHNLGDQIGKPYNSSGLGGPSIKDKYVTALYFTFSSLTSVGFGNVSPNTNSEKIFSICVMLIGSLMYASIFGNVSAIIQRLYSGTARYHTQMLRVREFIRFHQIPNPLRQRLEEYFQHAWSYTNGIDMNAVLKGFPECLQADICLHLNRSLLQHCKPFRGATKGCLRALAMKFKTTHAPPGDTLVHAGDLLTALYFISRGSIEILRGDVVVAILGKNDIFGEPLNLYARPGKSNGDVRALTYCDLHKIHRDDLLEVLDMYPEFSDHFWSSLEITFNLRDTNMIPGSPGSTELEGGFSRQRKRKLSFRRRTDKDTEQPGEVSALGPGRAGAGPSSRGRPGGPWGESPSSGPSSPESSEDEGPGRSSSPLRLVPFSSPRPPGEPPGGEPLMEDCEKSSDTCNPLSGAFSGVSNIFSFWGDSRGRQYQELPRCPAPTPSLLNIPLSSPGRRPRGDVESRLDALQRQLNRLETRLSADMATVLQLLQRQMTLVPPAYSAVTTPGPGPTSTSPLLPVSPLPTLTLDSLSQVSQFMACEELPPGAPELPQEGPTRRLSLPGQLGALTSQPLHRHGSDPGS

[4] = system: Mus musculus; experiment: Ex vivo receptor occupancy at GluN2B receptor in CD-1 mouse forebrain membranes assessed as reduction in [3H]Ro 25-6981 receptor labeling at 3 mg/kg, iv incubated for 5 mins by topcount micro scintillation counting method; assay type: functional

concentration [1] [nM]	Compound	Occ [2] [%]	IC50 [3] [µM]	Occ [4] [%]
220	Cc1ccc(CN2CC[C@@H](N3CCC(c4ccc(O)cc4)CC3)C2=O)cc1	92	0.4	
710	Cc1ccc(CN2CC[C@@H](N3CC[C@H](c4ccc(O)cc4)[C@@H](F)C3)C2=O)cc1		> 30	87
2500	Cc1ccc(CN2CC[C@@H](N3CCC(c4ccc(O)cc4)C(F)(F)C3)C2=O)cc1 (some centres undefined)		> 30	93
